# In article PMC10515483, “Structure–Reactivity Studies of 2-Sulfonylpyrimidines Allow Selective Protein Arylation” (Bioconjugate Chemistry, 2023):
# Test: NACME arylation rate constant (NMR)
# Assay type: physicochemical
# From the text: We employed nuclear magnetic resonance (NMR) and UV–vis to quantify the reactivity of our 2-SP derivatives and other representative electrophiles (Figure 2) against cysteine. NMR allowed straightforward determination of reaction rate constants through dual monitoring of the consumption of the warhead and formation of the product by integration of their respective NMR signals (Figures S1–S3). It simultaneously provided a direct readout on reaction specificity and hydrolytic stability of the warhead. All measurements were carried out in KPi buffer in the presence of 5% d^6-dmso, which is generally well-tolerated by a wide range of proteins in in vitro studies. N-acetylcysteine methylester (NACME) and L-glutathione (GSH) are useful model cysteine nucleophiles for in vitro studies of electrophilic agents.[32] Mixing reference electrophile 2-methylsulfonylpyrimidine (4q) with NACME or GSH in a 1:10 ratio (pseudo-first-order conditions) allowed extraction of accurate and reproducible second order rate constants (k). At pH 7.0, quantitative arylation of NACME occurred […] (k ≈ 4.5 × 10^–2 M^–1 s^–1), whereas GSH reacted approximately 3 times slower (k ≈ 1.6 × 10^–2 M^–1 s^–1; Figures S1–S3). […]
# transferred to the NMR instrument for acquisition. 1H spectra (16 scans) were recorded every 10 minutes under water suppression conditions. Following acquisition, spectra were analysed using […]
smiles,measurement,setting,value
"CS(=O)(=O)c1ncccn1 [4q, 2-methylsulfonylpyrimidine]",times faster at pH 7.0 vs 6.5,NACME,approximately 5 times
same,second order rate constant k with NACME,"pH 7.0, 1:10 ratio",≈ 4.5 × 10^–2 M^–1 s^–1
